Source: publication PMC6468648, “The Flavonoid Metabolite 2,4,6-Trihydroxybenzoic Acid Is a CDK Inhibitor and an Anti-Proliferative Agent: A Potential Role in Cancer Prevention” (Cancers, 2019)

Legend:
Type in all cases: biochemical
[1] = target: T1, CDK1 (Homo sapiens, UniProt P06493); test: in vitro kinase assay, […]-ATP ([…] ATP), H1 histone substrate, SDS-PAGE autoradiography
T1 construct: recombinant CDK1/Cyclin B1 (SignalChem); with Cyclin B1

[2] = target: T2, CDK4 (Homo sapiens, UniProt P11802); test: in vitro kinase assay, […]-ATP ([…] ATP), retinoblastoma (C-term) substrate, SDS-PAGE autoradiography
T2 construct: recombinant CDK4/Cyclin D1 (SignalChem); with Cyclin D1

[3] = target: T3, CDK2 (Homo sapiens, UniProt P24941); test: in vitro kinase assay, […]-ATP ([…] ATP), H1 histone substrate, SDS-PAGE autoradiography
T3 construct: recombinant CDK2/Cyclin A2 (SignalChem); with Cyclin A2

T2 sequence (P11802 2-303): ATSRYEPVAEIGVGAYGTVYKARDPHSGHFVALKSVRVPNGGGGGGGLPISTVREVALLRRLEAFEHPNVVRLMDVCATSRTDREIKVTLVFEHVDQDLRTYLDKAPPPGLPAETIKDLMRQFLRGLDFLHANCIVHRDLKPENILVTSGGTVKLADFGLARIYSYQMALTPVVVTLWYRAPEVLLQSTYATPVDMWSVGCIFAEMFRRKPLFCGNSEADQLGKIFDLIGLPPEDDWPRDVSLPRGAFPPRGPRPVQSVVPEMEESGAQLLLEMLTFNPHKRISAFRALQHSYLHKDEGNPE
T2 sequence (P24385 whole entry partner): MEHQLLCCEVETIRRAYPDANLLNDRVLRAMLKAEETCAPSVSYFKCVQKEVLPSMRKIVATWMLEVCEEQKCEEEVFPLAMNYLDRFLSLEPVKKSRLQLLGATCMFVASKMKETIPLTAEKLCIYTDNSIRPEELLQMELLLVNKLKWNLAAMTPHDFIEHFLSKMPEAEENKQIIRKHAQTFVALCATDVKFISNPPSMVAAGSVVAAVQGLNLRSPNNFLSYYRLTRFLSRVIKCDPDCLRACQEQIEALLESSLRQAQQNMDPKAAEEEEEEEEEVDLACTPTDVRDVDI
T1 sequence (P06493 whole entry): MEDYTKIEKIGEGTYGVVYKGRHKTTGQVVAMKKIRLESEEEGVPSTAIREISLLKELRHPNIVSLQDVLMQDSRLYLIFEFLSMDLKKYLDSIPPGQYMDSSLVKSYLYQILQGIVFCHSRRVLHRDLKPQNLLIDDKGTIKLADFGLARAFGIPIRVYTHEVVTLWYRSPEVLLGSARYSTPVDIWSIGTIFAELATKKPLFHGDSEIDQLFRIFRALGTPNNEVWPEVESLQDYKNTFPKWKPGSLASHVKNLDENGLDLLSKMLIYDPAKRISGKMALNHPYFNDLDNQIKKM
T1 sequence (P14635 whole entry partner): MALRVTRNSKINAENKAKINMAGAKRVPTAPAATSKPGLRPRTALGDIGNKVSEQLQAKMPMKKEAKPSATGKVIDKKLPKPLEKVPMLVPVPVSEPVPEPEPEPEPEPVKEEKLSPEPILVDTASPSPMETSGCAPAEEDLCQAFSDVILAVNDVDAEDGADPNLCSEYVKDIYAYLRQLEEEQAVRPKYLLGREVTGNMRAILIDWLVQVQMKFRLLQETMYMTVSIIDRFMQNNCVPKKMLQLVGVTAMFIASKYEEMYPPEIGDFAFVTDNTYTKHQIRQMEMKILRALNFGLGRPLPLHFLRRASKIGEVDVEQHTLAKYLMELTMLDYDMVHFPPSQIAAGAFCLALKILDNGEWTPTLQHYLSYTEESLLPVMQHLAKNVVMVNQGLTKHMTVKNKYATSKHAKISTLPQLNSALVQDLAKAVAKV

IC50 [1]: 580 ± 57 µM
IC50 [2]: 403 ± 63 µM
IC50 [3]: 262 ± 29 µM
SMILES: O=C(O)c1c(O)cc(O)cc1O [2,4,6-THBA, 2,4,6-trihydroxybenzoic acid]
